According to patent US20240268379A1, “BIODEGRADABLE PVA/PVP HYDROGELS, USES AND PREPARATION THEREOF” (Bar-Ilan University, priority 2021, published 2024):

Assay: Thermal stability of thymol by TGA-MS
Type: physicochemical
Conditions: 20° C./min, nitrogen
Description: Thermal gravimetric analysis (TGA) was carried out using SETSYS, by Setaram. The released products during the measurements were obtained by using Hiden HPR-20 QIC mass spectrometer (TGA) coupled with mass spectroscopy (MS). The analysis was conducted to study the stability effect of the PVA/PVP hydrogel, under heat treatment, on thymol, entrapped in the hydrogel, relative to thymol pure form. The tested samples were heated from 30° C. up to 630° C. (20° C./min heat rate) under nitrogen inert atmosphere (20 ml/min nitrogen flow rate).

## Cc1ccc(C(C)C)c(O)c1 [pure thymol, thymol]
  thymol loss end temperature: 130 °C
  thymol loss start temperature: 70 °C
